The values below are quoted from earlier work in patent US4835149A, “Solubilization of salts of pyridine-2-thiol-1-oxide” (BASF Corporation, priority 1986, dated 1989).

Assay in data set [1]: not given
This is another data set of the same source.

As for `[O-][n+]1ccccc1[S-].[O-][n+]1ccccc1[S-].[Zn+2]` [zinc salt], the “solubility of the zinc salt in a composition according to U.S. Pat. No. 3,636,213” value (composition having a pH of about 8) is “at least 200 parts per million”. Also, the “solubility in water at pH 8” value (pH of 8) was 35 to 50 parts per million. Moreover, the “solubility in water at pH 7” value (water, pH 7) is 10 to 20 parts per million. Further, the solubility in benzene in data set [1] (benzene) was 3-5 p.p.m. In addition, the solubility in chloroform in data set [1] (chloroform) is recorded as 3400 p.p.m. For the same compound, the “solubility in dimethyl formamide” value in data set [1] (dimethyl formamide) was 8100 p.p.m. The “solubility in dimethyl sulfoxide” value in data set [1] (dimethyl sulfoxide) was 5.13%. Further, the solubility in ethanol in data set [1] (ethanol) is 310 p.p.m. In data set [1] (petroleum oils, and most common organic solvents, in words), the “solubility in petroleum oils, and most common organic solvents” value was “substantially insoluble”. Moreover, the solubility in water in data set [1] (water) is 10-20 p.p.m.
